What was measured:
Type in all cases: cell-based
human MDA-5 = target: T1, human MDA-5 (Homo sapiens, UniProt Q9BYX4); assay: Human RLR antagonist screening, IRF3 luciferase reporter in HEK293 cells; details: antagonist mode, Ami 1 μM
T1 construct: expressed in transfected cells; host or cells: HEK293
T1 sequence (Q9BYX4 1-1025): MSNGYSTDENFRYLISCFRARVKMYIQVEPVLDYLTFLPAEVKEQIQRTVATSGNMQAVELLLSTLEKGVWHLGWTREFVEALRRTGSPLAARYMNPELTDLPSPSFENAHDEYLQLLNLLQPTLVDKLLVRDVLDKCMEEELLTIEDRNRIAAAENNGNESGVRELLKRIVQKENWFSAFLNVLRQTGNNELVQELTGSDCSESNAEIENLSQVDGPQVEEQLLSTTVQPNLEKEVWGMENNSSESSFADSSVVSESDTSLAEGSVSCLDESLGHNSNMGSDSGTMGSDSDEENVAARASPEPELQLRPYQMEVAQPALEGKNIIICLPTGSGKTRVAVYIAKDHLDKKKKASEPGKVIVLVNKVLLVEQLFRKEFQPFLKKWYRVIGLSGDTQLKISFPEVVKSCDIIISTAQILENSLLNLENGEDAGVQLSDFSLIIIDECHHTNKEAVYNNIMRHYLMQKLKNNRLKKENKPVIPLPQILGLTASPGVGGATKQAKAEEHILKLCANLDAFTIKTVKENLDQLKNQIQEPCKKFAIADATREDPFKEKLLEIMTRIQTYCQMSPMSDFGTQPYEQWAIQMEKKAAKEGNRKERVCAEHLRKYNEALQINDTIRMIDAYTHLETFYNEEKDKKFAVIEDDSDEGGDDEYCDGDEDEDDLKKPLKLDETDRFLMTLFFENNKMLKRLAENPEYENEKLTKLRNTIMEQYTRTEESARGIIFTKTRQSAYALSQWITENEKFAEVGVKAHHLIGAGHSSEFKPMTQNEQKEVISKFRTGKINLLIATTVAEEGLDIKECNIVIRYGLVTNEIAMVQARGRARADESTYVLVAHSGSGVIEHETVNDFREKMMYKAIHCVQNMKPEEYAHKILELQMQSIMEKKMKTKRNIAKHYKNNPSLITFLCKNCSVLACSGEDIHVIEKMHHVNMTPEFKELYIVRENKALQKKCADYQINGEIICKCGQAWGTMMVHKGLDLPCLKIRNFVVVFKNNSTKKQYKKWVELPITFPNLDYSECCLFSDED
Experimental: (§1) RIG-I and MDA-5 stimulation were tested by assessing IRF3 activation in HEK293 cells expressing human RIG-I or MDA-5 genes. The activity of the test articles was tested on human RIG-I and MDA-5 expressing cells as a potential agonist or antagonist. The test articles were evaluated at one concentration and compared to control ligands. This step was performed in triplicate. The results are provided as Relative Luminescence Units (RLUs). RIG-I/MDA-5: Poly(I:C)/LyoVec at 1 μg/mL Antagonist: 500 ng/mL. 5′ppp-dsRNA/LyoVec at 1 μg/mL Antagonist: 500 ng/mL. hIFNα at 1000 IU/mL. Antagonist: 100 IU/mL. In a 96-well plate (200 μL total volume) containing the appropriate cells (25,000-50,000 cells/well), 20 μL of the test article or of the positive control ligand was added to the wells. For the antagonist assay, the test article was incubated with the cells, at 37° C. with 5% CO2, for 30 minutes prior to the addition of the positive control ligand to the wells. After 20 hour incubation, activation of the IRF pathway was monitored using a luciferase detection assay. Luciferase activity was assayed in triplicate from the supernatant of the induced cells, and the relative luminescence units (RLUs) are detected by a Promega GloMax Luminometer. Fold induction (ratio of average induced value to average non-induced value).

human RIG-I = target: T2, human RIG-I (Homo sapiens, UniProt O95786); assay: as above; details: antagonist mode, Ami 1 μM
T2 construct: expressed in transfected cells; host or cells: HEK293
Experimental: as §1

human Mincle = target: T3, human Mincle (Homo sapiens, UniProt Q9ULY5); assay: Human CLR antagonist screening, NF-κB SEAP reporter in HEK293 cells; details: antagonist mode, Ami 1 μM, +TDB 5 μg/mL, No Sample 6, Control− 1
T3 construct: expressed in transfected cells; host or cells: HEK293
Experimental: Toll-Like Receptor (TLR), NOD-Like Receptor (NLR) and C-Type Lectin Receptor (CLR) stimulation were tested by assessing NF-κB activation in HEK293 cells expressing a given TLR, NLR or CLR. The activity of the test articles was tested at one concentration and compared to control ligands. These steps were performed in triplicate.
hMincle: Trehalose-6,6-dibehenate (TDB) at 10 μg/mL Antagonist: 5 μg/mL.
In a 96-well plate (200 μL total volume) containing the appropriate cells (50,000-75,000 cells/well), 20 μL of the test article or the positive control ligand was added to the wells. For the antagonist assay, the test article was incubated with the cells, at 37° C. with 5% CO2, for 30 minutes prior to the addition of the positive control ligand to the wells. The media added to the wells was designed for the detection of NF-κB induced SEAP expression. After a 16-24 hr incubation the optical density (OD) was read at 650 nm on a Molecular Devices SpectraMax 340PC absorbance detector.

T2 sequence (O95786 whole entry): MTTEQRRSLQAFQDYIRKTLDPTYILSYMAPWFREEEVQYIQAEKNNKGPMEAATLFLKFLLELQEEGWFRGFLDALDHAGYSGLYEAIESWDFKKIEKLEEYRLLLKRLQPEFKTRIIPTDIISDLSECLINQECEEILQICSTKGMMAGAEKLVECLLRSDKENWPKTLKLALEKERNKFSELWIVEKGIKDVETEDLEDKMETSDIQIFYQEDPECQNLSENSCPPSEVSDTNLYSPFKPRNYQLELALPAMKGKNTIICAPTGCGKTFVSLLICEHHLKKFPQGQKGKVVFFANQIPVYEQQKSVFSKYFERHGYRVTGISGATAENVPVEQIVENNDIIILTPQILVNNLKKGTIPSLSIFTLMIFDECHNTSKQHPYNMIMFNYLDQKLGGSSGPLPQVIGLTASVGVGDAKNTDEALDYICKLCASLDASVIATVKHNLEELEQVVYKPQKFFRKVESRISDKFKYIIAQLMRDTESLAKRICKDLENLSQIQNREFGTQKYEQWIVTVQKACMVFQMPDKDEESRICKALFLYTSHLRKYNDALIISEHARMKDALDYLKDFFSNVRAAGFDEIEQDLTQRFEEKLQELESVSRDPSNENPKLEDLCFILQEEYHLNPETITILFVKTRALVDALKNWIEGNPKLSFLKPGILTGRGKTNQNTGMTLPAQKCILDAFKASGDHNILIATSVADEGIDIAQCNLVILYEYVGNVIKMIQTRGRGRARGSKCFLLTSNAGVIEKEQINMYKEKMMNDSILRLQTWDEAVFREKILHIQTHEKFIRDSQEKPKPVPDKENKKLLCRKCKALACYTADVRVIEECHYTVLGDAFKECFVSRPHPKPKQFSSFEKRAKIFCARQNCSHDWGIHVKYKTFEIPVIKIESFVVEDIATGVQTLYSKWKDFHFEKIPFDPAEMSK
T3 sequence (Q9ULY5 whole entry): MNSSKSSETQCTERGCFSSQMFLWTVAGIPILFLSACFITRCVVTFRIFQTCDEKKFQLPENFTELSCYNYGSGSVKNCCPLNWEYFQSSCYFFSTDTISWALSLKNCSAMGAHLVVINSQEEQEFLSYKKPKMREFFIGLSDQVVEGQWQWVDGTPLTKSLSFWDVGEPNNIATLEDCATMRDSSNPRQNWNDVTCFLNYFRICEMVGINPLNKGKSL

CN(C)CCC=C1c2ccccc2CCc2ccccc21 [Amitriptyline]
Fold induction (ratio of average induced value to average non-induced value) (human MDA-5; 5′ppp-dsRNA/LyoVec 500 ng/mL, No Sample 1, Control− 1): 1 | Fold induction (ratio of average induced value to average non-induced value) (human MDA-5; Poly(I:C)/LyoVec 500 ng/mL, No Sample 9, Control− 1): 10 | Fold induction (ratio of average induced value to average non-induced value) (human MDA-5; hIFNα 100 IU/mL, No Sample 255, Control− 1, listed as Ami): 192 | Fold induction (ratio of average induced value to average non-induced value) (human RIG-I; 5′ppp-dsRNA/LyoVec 500 ng/mL, No Sample 6, Control− 1): 6 | Fold induction (ratio of average induced value to average non-induced value) (human RIG-I; Poly(I:C)/LyoVec 500 ng/mL, No Sample 16, Control− 1): 16 | Fold Induction (human Mincle): slight inhibitory effect | Fold Induction (human Mincle; listed as Ami): 5
